From PubChem BioAssay AID248 (DTP/NCI, 2004)
Several values for one entry are separate records, joined by “and”; a condition that tells them apart may be missing. Equal entries are not always repeated. Toxic doses and inconclusive results are not listed. No stated cut-off is given here; in the data, active means T/C of 150% or more; inactive means T/C below 125%.

System: L1210 leukemia ip in BDF1 mice, survival T/C
Assay: NCI In Vivo Anticancer Drug Screen. Data for tumor model L1210 Leukemia (intraperitoneal) in B6D2F1 (BDF1) mice
Details: endpoint: mean survival time, higher = longer survival
Method in brief: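 Ratio derived from survival: compound-dosed mice over vehicle-dosed mice, all bearing a transplantable tumor.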

[1] = dose: 100.0 mg/kg/injection, schedule: Q04DX003 (ip), vehicle: Klucel (hydroxypropylcellulose) (HPC)
[2] = dose: 200.0 mg/kg/injection, schedule: Q04DX003 (ip), vehicle: Klucel (hydroxypropylcellulose) (HPC)
[3] = dose: 400.0 mg/kg/injection, schedule: Q04DX003 (ip), vehicle: Klucel (hydroxypropylcellulose) (HPC)
[4] = dose: 100.0 mg/kg/injection, schedule: Q04DX003 (ip), vehicle: saline
[5] = dose: 25.0 mg/kg/injection, schedule: Q04DX003 (ip), vehicle: saline
[6] = dose: 50.0 mg/kg/injection, schedule: Q04DX003 (ip), vehicle: saline

Measured: T/C

CCCCCCCCCCCCCCCC(=O)Nc1ccc(O)cc1
inactive: dose: 100.0 mg/kg/injection, schedule: Q01DX001 (ip), vehicle: saline 110 % of control | [1] 97 % of control | dose: 200.0 mg/kg/injection, schedule: Q01DX001 (ip), vehicle: saline 110 % of control | [2] 102 % of control | dose: 400.0 mg/kg/injection, schedule: Q01DX001 (ip), vehicle: saline 108 % of control | [3] 95 % of control

CNC(=O)Cc1ccc2cc(OC)c(OC)cc2c1
inactive: dose: 100.0 mg/kg/injection, schedule: Q04DX003 (ip), vehicle: saline with Tween-80 95 % of control | dose: 200.0 mg/kg/injection, schedule: Q04DX003 (ip), vehicle: saline with Tween-80 101 % of control | dose: 400.0 mg/kg/injection, schedule: Q04DX003 (ip), vehicle: saline with Tween-80 91 % of control

C=CCc1cnc(SCc2ccccc2)[nH]c1=O
inactive: dose: 100.0 mg/kg/injection, schedule: Q01DX001 (ip), vehicle: gum acacia 101 % of control | dose: 200.0 mg/kg/injection, schedule: Q01DX001 (ip), vehicle: gum acacia 91 % of control | dose: 400.0 mg/kg/injection, schedule: Q01DX001 (ip), vehicle: gum acacia 94 % of control

Cc1nonc1C(=O)NN
inactive: dose: 25.0 mg/kg/injection, schedule: Q04DX002 (ip), vehicle: Klucel (hydroxypropylcellulose) (HPC) 93 % of control | dose: 50.0 mg/kg/injection, schedule: Q04DX002 (ip), vehicle: Klucel (hydroxypropylcellulose) (HPC) 110 % of control | dose: 100.0 mg/kg/injection, schedule: Q04DX002 (ip), vehicle: Klucel (hydroxypropylcellulose) (HPC) 93 % of control and 101 % of control

CCCCCCCCCCCCCCCC[N+](C)(C)C1=C([O-])C(=O)N(c2ccc(Cl)c(Cl)c2)C1=O
inactive: dose: 50.0 mg/kg/injection, schedule: Q04DX002 (ip), vehicle: saline with Tween-80 94 % of control | dose: 100.0 mg/kg/injection, schedule: Q04DX002 (ip), vehicle: saline with Tween-80 94 % of control

Cc1cccc(C(=O)O)[n+]1[O-]
inactive: dose: 50.0 mg/kg/injection, schedule: Q01DX001 (ip), vehicle: carboxymethylcellulose (CMC) 100 % of control | dose: 100.0 mg/kg/injection, schedule: Q01DX001 (ip), vehicle: carboxymethylcellulose (CMC) 95 % of control | dose: 200.0 mg/kg/injection, schedule: Q01DX001 (ip), vehicle: carboxymethylcellulose (CMC) 98 % of control | dose: 400.0 mg/kg/injection, schedule: Q01DX001 (ip), vehicle: carboxymethylcellulose (CMC) 100 % of control

Clc1ccc(OCc2sc3ccc(Br)cc3c2CN2CCc3ccccc3C2)cc1
inactive: dose: 75.0 mg/kg/injection, schedule: Q01DX009 (ip), vehicle: Klucel (hydroxypropylcellulose) (HPC) 101 % of control | [1] 94 % of control | dose: 150.0 mg/kg/injection, schedule: Q01DX009 (ip), vehicle: Klucel (hydroxypropylcellulose) (HPC) 94 % of control | [2] 98 % of control | dose: 300.0 mg/kg/injection, schedule: Q01DX009 (ip), vehicle: Klucel (hydroxypropylcellulose) (HPC) 97 % of control | [3] 94 % of control

COc1ccc(-n2c(O)c(N=Nc3ccccc3OC)c(=O)n(-c3ccccc3)c2=S)cc1
inactive: dose: 50.0 mg/kg/injection, schedule: Q01DX001 (ip), vehicle: Klucel (hydroxypropylcellulose) (HPC) 94 % of control | dose: 100.0 mg/kg/injection, schedule: Q01DX001 (ip), vehicle: Klucel (hydroxypropylcellulose) (HPC) 92 % of control | dose: 200.0 mg/kg/injection, schedule: Q01DX001 (ip), vehicle: Klucel (hydroxypropylcellulose) (HPC) 92 % of control

O=C(N/N=C/c1ccc(Cl)cc1Cl)c1ccccc1
inactive: [1] 101 % of control | [2] 95 % of control

CCN(CC)c1ccc(NCS(=O)(=O)O)cc1
inactive: dose: 50.0 mg/kg/injection, schedule: Q01DX009 (ip), vehicle: saline sonified 103 % of control | dose: 100.0 mg/kg/injection, schedule: Q01DX009 (ip), vehicle: saline sonified 101 % of control | [4] 110 % of control

CCCCCCCCCC(=O)N1CCOCC1
inactive: dose: 25.0 mg/kg/injection, schedule: Q01DX009 (ip), vehicle: saline 98 % of control | [5] 97 % of control | dose: 50.0 mg/kg/injection, schedule: Q01DX009 (ip), vehicle: saline 113 % of control | [6] 101 % of control | [4] 94 % of control and 89 % of control

O=C(O)c1c(Br)c(Br)c(Br)c(Br)c1-c1c2ccc(=O)c(O)c-2oc2c(O)c(O)ccc12
inactive: dose: 12.5 mg/kg/injection, schedule: Q04DX003 (ip), vehicle: saline 108 % of control | [5] 103 % of control | [6] 105 % of control | [4] 102 % of control
